These results are taken from patent US10526323B2, “Indazole and azaindazole substituted compounds as mGluR4 allosteric potentiators, compositions, and methods of treating neurological dysfunction” (Vanderbilt University, priority 2015, dated 2020).

Molecules are shown by their SMILES.

The assay has as its target mGluR4 (UniProt Q14833). Briefly: mGluR4 potentiation assay: increase in response to an EC20 concentration of agonist (species not given). The format is cell-based. To be noted: EC50 for potentiation of mGluR4; table does not state human or rat. A digest of the protocol: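 Human mGluR4 was expressed in CHO cells read with a Ca2+-sensitive dye; rat mGluR4 was co-expressed with GIRK in […] read by thallium flux. Potentiation is the rise over agonist-alone response, with EC50 and maximal potentiation from non-linear fits.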
Broadly, the EC50 is the concentration needed to bring the measured effect to its halfway point. Turning to `Cn1nc(C2CC2)c2ccc(Nc3n[nH]c4ccc(F)cc34)cc21` [Example 7, N-(3-cyclopropyl-1-methyl-1H-indazol-6-yl)-5-fluoro-1H-indazol-3-amine], the concentration giving a half-maximal response (EC50) amounted to 1230 nM.

Regarding `CCCn1nc(C)c2cc(Nc3n[nH]c4nccnc34)ccc21` [Example 131, N-(3-methyl-1-propyl-1H-indazol-5-yl)-1H-pyrazolo[3,4-b]pyrazin-3-amine], the half-maximal effective concentration (EC50) is 107 nM.

Turning to `Cc1cc(Cn2nc3ccc(Nc4n[nH]c5cccnc45)cc3c2C)no1` [Example 70, N-(3-methyl-2-((5-methylisoxazol-3-yl)methyl)-2H-indazol-5-yl)-1H-pyrazolo[4,3-b]pyridin-3-amine], the EC50 is 870 nM.

On to `CCC(F)(F)Cn1nc(C)c2cc(Nc3n[nH]c4ncccc34)ccc21` [Example 137, N-(1-(2,2-difluorobutyl)-3-methyl-1H-indazol-5-yl)-1H-pyrazolo[3,4-b]pyridin-3-amine], for which the half-maximal effective concentration (EC50) worked out at 436 nM.

For the compound `Cn1ncc2cc(Nc3n[nH]c4c3CCCC4)ccc21` [Example 57, 1-methyl-N-(4,5,6,7-tetrahydro-1H-indazol-3-yl)-1H-indazol-5-amine], the EC50 was greater than 10000 nM.

`Cn1nc(C2CC2)c2ccc(Nc3n[nH]c4cc(F)ccc34)cc21` [Example 11, N-(3-cyclopropyl-1-methyl-1H-indazol-6-yl)-6-fluoro-1H-indazol-3-amine]: the half-maximal effective concentration (EC50) turned out to be 4220 nM.

With `CC(=O)c1nn(C)c2cc(Nc3n[nH]c4cccnc34)ccc12` [Example 21, 1-(6-((1H-pyrazolo[4,3-b]pyridin-3-yl)amino)-1-methyl-1H-indazol-3-yl)ethan-1-one], the 50% effective concentration (EC50) is 764 nM.

`c1ccc2c(Nc3ccc4c(cnn4CC4CCC4)c3)n[nH]c2c1` [Example 86, N-(1-(cyclobutylmethyl)-1H-indazol-5-yl)-1H-indazol-3-amine]: the EC50 amounted to 51.4 nM.

Take `Cn1nc(C(=O)N2CCC(F)(F)C2)c2ccc(Nc3n[nH]c4cccnc34)cc21` [Example 172, (3,3-difluoropyrrolidin-1-yl)-[1-methyl-6-(1H-pyrazolo[4,3-b]pyridin-3-ylamino)indazol-3-yl]methanone]: the concentration giving a half-maximal response (EC50) came out at 289 nM.

Take `CCCCCn1nc(C)c2cc(Nc3n[nH]c4nccnc34)ccc21` [Example 95, N-(3-methyl-1-pentyl-1H-indazol-5-yl)-1H-pyrazolo[3,4-b]pyrazin-3-amine]: the half-maximal effective concentration (EC50) stood at 35 nM.

As to `Cc1nn(C(C)C)c2ncc(Nc3n[nH]c4ccccc34)cc12` [Example 269, N-(1H-indazol-3-yl)-1-isopropyl-3-methyl-1H-pyrazolo[3,4-b]pyridin-5-amine], the EC50 amounted to 2550 nM.

Take `Cn1nc(OCc2ccncc2)c2ccc(Nc3n[nH]c4cccnc34)cc21` [Example 238, N-(1-methyl-3-(pyridin-4-ylmethoxy)-1H-indazol-6-yl)-1H-pyrazolo[4,3-b]pyridin-3-amine]: the concentration for a half-maximal effect (EC50) is 65.8 nM.

For the compound `CCCn1nc(C)c2cc(Nc3n[nH]c4cccnc34)ccc21` [Example 113, N-(3-methyl-1-propyl-1H-indazol-5-yl)-1H-pyrazolo[4,3-b]pyridin-3-amine], the 50% effective concentration (EC50) worked out at 123 nM.

Turning to `Cc1noc(Cn2nc(C)c3cc(Nc4n[nH]c5cccnc45)ccc32)n1` [Example 126, N-(3-methyl-1-((3-methyl-1,2,4-oxadiazol-5-yl)methyl)-1H-indazol-5-yl)-1H-pyrazolo[4,3-b]pyridin-3-amine], the EC50 stood at 264 nM.

For the compound `[2H]C([2H])(C)n1nc(C)c2cc(Nc3n[nH]c4nccnc34)ccc21` [Example 127, N-(1-(ethyl-1,1-d2)-3-methyl-1H-indazol-5-yl)-1H-pyrazolo[3,4-b]pyrazin-3-amine], the concentration giving a half-maximal response (EC50) came out at 154 nM.

Take `Cc1nn(C(C)C)c2ccc(Nc3n[nH]c4cccnc34)cc12` [Example 61, N-(1-isopropyl-3-methyl-1H-indazol-5-yl)-1H-pyrazolo[4,3-b]pyridin-3-amine]: the 50% effective concentration (EC50) was 133 nM.

For `Cn1nc(S(C)(=O)=O)c2ccc(Nc3n[nH]c4cccnc34)cc21` [Example 186, N-(1-methyl-3-(methylsulfonyl)-1H-indazol-6-yl)-1H-pyrazolo[4,3-b]pyridin-3-amine], the EC50 came to 1880 nM.

With `CC(C)n1ncc2cc(Nc3n[nH]c4nccnc34)cnc21` [Example 153, N-(1-isopropyl-1H-pyrazolo[3,4-b]pyridin-5-yl)-1H-pyrazolo[3,4-b]pyrazin-3-amine], the EC50 worked out at 413 nM.

In the case of `Cn1cc2c(Cl)cc(Nc3n[nH]c4nccnc34)cc2n1` [Example 10, N-(4-chloro-2-methyl-2H-indazol-6-yl)-1H-pyrazolo[3,4-b]pyrazin-3-amine], the concentration giving a half-maximal response (EC50) worked out at 515 nM.

`Cc1nn(CC2CC(c3ncccc3F)=NO2)c2ccc(Nc3n[nH]c4cccnc34)cc12` (stereo not shown) [Example 115, N-(1-((3-(3-fluoropyridin-2-yl)-4,5-dihydroisoxazol-5-yl)methyl)-3-methyl-1H-indazol-5-yl)-1H-pyrazolo[4,3-b]pyridin-3-amine]: the concentration giving a half-maximal response (EC50) came to 135 nM.

As for `Clc1nn(CC2CCC2)c2ccc(Nc3n[nH]c4cccnc34)cc12` [Example 285, N-(3-chloro-1-(cyclobutylmethyl)-1H-indazol-5-yl)-1H-pyrazolo[4,3-b]pyridin-3-amine], the EC50 came out at 1980 nM.

Turning to `Cc1nn(C2CCCCC2)c2ncc(Nc3n[nH]c4cccnc34)cc12` [Example 260, 1-cyclohexyl-3-methyl-N-(1H-pyrazolo[4,3-b]pyridin-3-yl)pyrazolo[3,4-b]pyridin-5-amine], the EC50 turned out to be 440 nM.

Consider `Cn1nc(OCC(F)(F)F)c2ccc(Nc3n[nH]c4cccnc34)cc21` [Example 182, N-(1-methyl-3-(2,2,2-trifluoroethoxy)-1H-indazol-6-yl)-1H-pyrazolo[4,3-b]pyridin-3-amine], for which the EC50 worked out at 198 nM.

As for `Cc1nn(CC2CCC2)c2ccc(Nc3n[nH]c4cccnc34)cc12` [Example 72, N-(1-(cyclobutylmethyl)-3-methyl-1H-indazol-5-yl)-1H-pyrazolo[4,3-b]pyridin-3-amine], the concentration giving a half-maximal response (EC50) was 47 nM.

On to `CC(c1nn(C)c2cc(Nc3n[nH]c4cccnc34)ccc12)C(F)(F)F` (stereo not shown) [Example 46, N-(1-methyl-3-(1,1,1-trifluoropropan-2-yl)-1H-indazol-6-yl)-1H-pyrazolo[4,3-b]pyridin-3-amine], for which the EC50 was 215 nM.

Turning to `Cc1nn(CCO)c2ncc(Nc3n[nH]c4cccnc34)cc12` [Example 256, 2-[3-methyl-5-(1H-pyrazolo[4,3-b]pyridin-3-ylamino)pyrazolo[3,4-b]pyridin-1-yl]ethanol], the EC50 is greater than 10000 nM.

For the compound `Cn1nc(OCc2cccnc2)c2ccc(Nc3n[nH]c4cccnc34)cc21` [Example 184, N-(1-methyl-3-(pyridin-3-ylmethoxy)-1H-indazol-6-yl)-1H-pyrazolo[4,3-b]pyridin-3-amine], the concentration for a half-maximal effect (EC50) worked out at 83 nM.

In the case of `Cc1nn(CC2CC(F)(F)C2)c2ccc(Nc3n[nH]c4cccnc34)cc12` [Example 288, N-(1-((3,3-difluorocyclobutyl)methyl)-3-methyl-1H-indazol-5-yl)-1H-pyrazolo[4,3-b]pyridin-3-amine], the EC50 was 680 nM.

For `Cn1nc(C2CC2)c2ccc(Nc3n[nH]c4nccnc34)cc21` [Example 4, N-(3-cyclopropyl-1-methyl-1H-indazol-6-yl)-1H-pyrazolo[3,4-b]pyrazin-3-amine], the concentration giving a half-maximal response (EC50) stood at 20 nM.

For the compound `Cn1nc(-c2ccncc2)c2ccc(Nc3n[nH]c4cccnc34)cc21` [Example 218, N-[1-methyl-3-(4-pyridyl)indazol-6-yl]-1H-pyrazolo[4,3-b]pyridin-3-amine], the EC50 came out at 871 nM.

In the case of `Cc1cc(Cn2nc(C)c3cc(Nc4n[nH]c5cccnc45)ccc32)no1` [Example 76, N-(3-methyl-1-((5-methylisoxazol-3-yl)methyl)-1H-indazol-5-yl)-1H-pyrazolo[4,3-b]pyridin-3-amine], the concentration for a half-maximal effect (EC50) came out at 51 nM.

For the compound `Cn1nc(C(=O)N2CC[C@@H](F)C2)c2ccc(Nc3n[nH]c4cccnc34)cc21` [Example 168, [(3R)-3-fluoropyrrolidin-1-yl]-[1-methyl-6-(1H-pyrazolo[4,3-b]pyridin-3-ylamino)indazol-3-yl]methanone], the EC50 stood at 903 nM.

On to `COCCn1nc(C)c2cc(Nc3n[nH]c4cccnc34)ccc21` [Example 133, N-(1-(2-methoxyethyl)-3-methyl-1H-indazol-5-yl)-1H-pyrazolo[4,3-b]pyridin-3-amine], for which the EC50 was found to be 379 nM.

For the compound `Cn1ncc2c(Cl)cc(Nc3n[nH]c4cccnc34)cc21` [Example 2, N-(4-chloro-1-methyl-1H-indazol-6-yl)-1H-pyrazolo[4,3-b]pyridin-3-amine], the EC50 was 29 nM.

Take `Cc1nn(C2CC2)c2ncc(Nc3n[nH]c4cccnc34)cc12` [Example 263, 1-cyclopropyl-3-methyl-N-(1H-pyrazolo[4,3-b]pyridin-3-yl)pyrazolo[3,4-b]pyridin-5-amine]: the concentration for a half-maximal effect (EC50) came to 410 nM.

Turning to `[2H]C([2H])(C)Oc1nn(C)c2cc(Nc3n[nH]c4cccnc34)ccc12` [Example 241, N-(3-(ethoxy-1,1-d2)-1-methyl-1H-indazol-6-yl)-1H-pyrazolo[4,3-b]pyridin-3-amine], the 50% effective concentration (EC50) is 356 nM.

Turning to `Cc1nn(CC2CCC2)c2ccc(Nc3n[nH]c4nccnc34)cc12` [Example 73, N-(1-(cyclobutylmethyl)-3-methyl-1H-indazol-5-yl)-1H-pyrazolo[3,4-b]pyrazin-3-amine], the EC50 was 186 nM.

As for `Cc1nn(CC2CC2)c2ccc(Nc3n[nH]c4cccnc34)cc12` [Example 111, N-(1-(cyclopropylmethyl)-3-methyl-1H-indazol-5-yl)-1H-pyrazolo[4,3-b]pyridin-3-amine], the EC50 worked out at 36 nM.

As for `Cc1cc(COc2nn(C)c3cc(Nc4n[nH]c5cccnc45)ccc23)on1` [Example 45, N-(1-methyl-3-((3-methylisoxazol-5-yl)methoxy)-1H-indazol-6-yl)-1H-pyrazolo[4,3-b]pyridin-3-amine], the EC50 was 104 nM.

Regarding `CCCOc1nn(C)c2cc(Nc3n[nH]c4cccnc34)ccc12` [Example 239, N-(1-methyl-3-propoxy-1H-indazol-6-yl)-1H-pyrazolo[4,3-b]pyridin-3-amine], the EC50 came to 171 nM.
